# Source: patent publication US7955294B2, “Intermittent dosing of nitric oxide gas” (Sensormedics Corporation, priority 2004, dated 2011)
# Tests used:
# E. coli = assay: Survival of bacteria under cycled high/low NO gas exposure (FIG. 9); assay type: cell-based; details: 160 ppm NO gas 30 minutes then 20 ppm 3.5 hours, cycled every 4 hours for 24 hours; compared to air
# Experimental: (§1) The effectiveness of the intermittent high dose delivery of nitric oxide gas in combating microorganisms was tested and verified. Briefly, the experimental methods were as follows. Inoculums of varying bacteria was prepared to a suspension of 2.5×10^8 cfu/ml, and diluted 1:1000 in sterile normal saline. Three milliliters of the inoculums were used per well in a sterile culture place. Exposure of the inoculums were performed in an exposure chamber, which has been described for example, in Ghafarri, A. et al., “A direct nitric oxide gas delivery system for bacterial and mammalian cell cultures,” Nitric Oxide. 12(3):129-40 (May 2005), which is hereby incorporated by reference as if fully set forth herein. The inoculums were exposed to 160 ppm of NO gas at a flow rate of 2.5 liters per minute for 30 minutes followed by exposure to 20 ppm of NO gas for 3.5 hours. The exposure to high and low concentrations of NO gas was repeatedly cycled every 4 hours for 24 hours. At various times (e.g., 0, 4, 8, and 12 hours), samples were taken and plated to determine the survivability of the bacteria as determined by counting cfu/ml.
# (§2) FIGS. 6-9 show the survival of various bacteria used in the experiment with NO gas compared to exposure to air as control.
# S. aureus (ATCC#25923) = assay: Survival of bacteria under cycled high/low NO gas exposure (FIG. 6); assay type: cell-based; details: 160 ppm NO gas 30 minutes then 20 ppm 3.5 hours, cycled every 4 hours for 24 hours; compared to air
# Experimental: as §1, §2
# [1] = test system: P. aeruginosa (ATCC#27853); assay: Survival of bacteria under cycled high/low NO gas exposure (FIG. 7); assay type: cell-based; details: 160 ppm NO gas 30 minutes then 20 ppm 3.5 hours, cycled every 4 hours for 24 hours; compared to air
# Experimental: as §1, §2
# Mycobacteria = assay: Sensitivity of various microorganisms to NO gas damage; assay type: cell-based; details: compared with various other microorganisms
# Experimental: (§3) Additional studies were performed to test the hypothesis that the effect of NO gas in killing microorganisms is related to thiol function. […] This may be due to Mycobacteria having an exceptional thiol, mycothiol, that maintains the redox balance in the cell and protects the cell from nitrosative and oxidative stress. In order to test this hypothesis, sensitivities to NO gas was compared between mycothiol-deficient Mycobacterium smegmatis Mutant MshA to its wild type counterpart, mc^2 155 by exposing both strains to 200 ppm of NO gas. MshA is an enzyme needed in mycothiol biosynthesis.
# [2] = test system: mycothiol in wild type M. smegmatis; assay: Mycothiol level by HPLC after NO gas exposure (FIG. 11); assay type: cell-based, Mycobacterium smegmatis; details: 400 ppm NO gas, compared to exposure to air
# Experimental: Further experiments were conducted to assay and measure the mycothiol level using HPLC in wild type M. smegmatis after exposure to 400 ppm NO gas and were compared to mycothiol level after exposure to air.
# [3] = test system: P. aeruginosa (clinical strain from Cystic Fibrosis); assay: Survival of bacteria under cycled high/low NO gas exposure (FIG. 8); assay type: cell-based; details: 160 ppm NO gas 30 minutes then 20 ppm 3.5 hours, cycled every 4 hours for 24 hours; compared to air
# Experimental: as §1, §2
# [4] = test system: mycothiol-deficient Mycobacterium smegmatis Mutant MshA; assay: Survival of mycothiol-deficient mutant versus wild type on exposure to NO gas (FIG. 10); assay type: cell-based; details: 200 ppm NO gas; wild type counterpart mc^2 155
# Experimental: as §3
structure (smiles),measurement,setting,value
"[N]=O [NO gas, nitric oxide]",survival of E. coli (cfu/ml),E. coli,effective method of killing the bacteria
same,survival of S. aureus (cfu/ml),S. aureus (ATCC#25923),effective method of killing the bacteria
same,survival of P. aeruginosa ATCC#27853 (cfu/ml),[1],effective method of killing the bacteria
same,sensitivity of Mycobacteria to NO gas damage,Mycobacteria,less sensitive
same,level of mycothiol in the mycobacterium,[2],reduced compared to exposure to air
same,survival of P. aeruginosa clinical strain from Cystic Fibrosis (cfu/ml),[3],effective method of killing the bacteria
same,sensitivity of MshA mutant to NO gas versus wild type,[4],more sensitive
same,time to kill MshA mutant versus wild type,[4],killed in less time than its wild type counterpart
